According to the NIST ThermoML archive (doi:10.1016/j.fluid.2010.10.022):

Assay: excess molar enthalpy (molar enthalpy of mixing); xn = mol fraction of the nth substance listed
Conditions: 298.15 K, 101 kPa, Liquid, Flow calorimetry

CC#CCCC [2-hexyne] + CCCOC(C)=O
Conditions | excess molar enthalpy [kcal/mol]
x2 = 0.1094 | 0.0106
x2 = 0.204 | 0.0174
x2 = 0.3153 | 0.022
x2 = 0.4179 | 0.0249
x2 = 0.5044 | 0.0245
x2 = 0.5938 | 0.0215
x2 = 0.7075 | 0.0157
x2 = 0.7983 | 0.0108
x2 = 0.8927 | 0.00645

CCC#CCC [3-hexyne] + CCCOC(C)=O
Conditions | excess molar enthalpy [kcal/mol]
x2 = 0.0968 | 0.0105
x2 = 0.202 | 0.0186
x2 = 0.3025 | 0.0269
x2 = 0.4063 | 0.0341
x2 = 0.4979 | 0.0377
x2 = 0.5956 | 0.0353
x2 = 0.7045 | 0.0267
x2 = 0.7995 | 0.0182
x2 = 0.8928 | 0.0101

C#CCCCC [1-hexyne] + CCCOC(C)=O
Conditions | excess molar enthalpy [kcal/mol]
x2 = 0.1079 | -0.0304
x2 = 0.1967 | -0.0477
x2 = 0.3032 | -0.0608
x2 = 0.395 | -0.066
x2 = 0.4373 | -0.0664
x2 = 0.5003 | -0.0654
x2 = 0.595 | -0.0605
x2 = 0.6575 | -0.0553
x2 = 0.6989 | -0.0511
x2 = 0.7967 | -0.038
x2 = 0.8992 | -0.0205
